# Measurements taken from patent US20170202780A1, “PHARMACEUTICAL COMPOSITION” (SENTAN Pharma Inc., priority 2014, published 2017).
# What was measured:
# [1] = tested on: model mouse of myocardial ischemia-reperfusion; experiment: Infarct size (area of infarct region/area of AAR) after myocardial ischemia-reperfusion; format: in vivo; details: iv
# Experimental: (§1) Mice (C57BL/6J, 8 to 10 weeks of age, male, 25 to 30 g, n=3) were intraperitoneally administered with pentobarbital sodium (60 mg/kg) or subjected to inhalation anesthesia with isoflurane. During the procedure, respiration was controlled by a mechanical ventilator (tidal volume: 0.5 ml, respiratory rate: 140 breaths/min); the mouse was kept warm using a heating pad so that the rectal temperature was maintained at 36.8° C. to 37.2° C. An incision was made horizontally at the level of the third to fourth intercostal space; and the pericardium was opened. […] ST change in electrocardiogram and a change in the color of cardiac muscles were observed and ischemia in the cardiac muscles was checked. […]
# Twenty-four hours after the reperfusion, the mouse was anesthetized again and endotracheal intubation was conducted, followed by thoracotomy. […] In evaluation of the specimen, SMZ1500 (manufactured by Nikon Corporation) was employed as an optical and fluorescence microscope. […]
# Each of the sections was stained in the same manner as described above; and the areas of infarct (region shown in white) and AAR (region shown in red) were each measured and the area of the infarct region/the area of AAR was calculated. […]
# Each of the sections was stained in the same manner as described above; and the areas of infarct and AAR were each measured and the area of the infarct region/the area of AAR was calculated. […]
# [2] = Maximum soluble amount of bulk drug for intravenous dosing; format: physicochemical; details: expressed as dose
# [3] = tested on: model mouse of myocardial ischemia-reperfusion; experiment: Selective drug delivery to ischemia reperfusion sites, fluorescence of heart specimens; format: in vivo; details: stereo microscope, heart specimen 24 h after reperfusion; iv at reperfusion, FITC 40 mg/kg or FITC-NP 800 mg/kg
# Experimental: as §1, with “checked. The silicone tube was removed 30 minutes after the ligature. Reperfusion was carried out and at the same time 0.1 to 0.2 ml of solution of test substance was intravenously injected. The chest was closed using 5-0 silk suture; and then extubation was performed after spontaneous breathing was confirmed. The intravenously-injected test substance is FITC (40 mg/kg) or FITC-NP (800 mg/kg).” for “checked.”
# Twenty-four hours after the reperfusion, the mouse was anesthetized again and endotracheal intubation was conducted, followed by thoracotomy. […] In evaluation of the specimen, SMZ1500 (manufactured by Nikon Corporation) was employed as an optical and fluorescence microscope.
Structure (SMILES),reduction of the infarct size ([1]; irbesartan dosed at 3.0 mg/kg),maximum soluble amount [2] [mg/kg],reduction of the infarct size ([1]; pitavastatin dosed at 10 mg/kg),fluorescence of FITC in the infarction site [3]
CCCCC1=NC2(CCCC2)C(=O)N1Cc1ccc(-c2ccccc2-c2nnn[nH]2)cc1 [irbesartan],drastic reduction of the infarct size was not seen,3.0,,
O=C(O)C[C@H](O)C[C@H](O)/C=C/c1c(C2CC2)nc2ccccc2c1-c1ccc(F)cc1 [pitavastatin],,10,drastic reduction of the infarct size was not seen,
CCc1ccc(CCOc2ccc(CC3SC(=O)NC3=O)cc2)nc1 (stereo not shown) [pioglitazone],,3.0,,
O=C1OC2(c3ccc(O)cc3Oc3cc(O)ccc32)c2ccc(N=C=S)cc21 [FITC],,,,not observed
"CSc1ccc(C(=O)N[C@H]2CCCC[C@H]2NC(=O)CNC(=O)c2cc(C(F)(F)F)ccc2NC(=O)NC(C)C)cc1 (relative stereo) [BMS CCR2 22, 2-[(Isopropylaminocarbonyl)amino]-N-[2-[[cis-2-[[4-(methylthio)benzoyl]amino]cyclohexyl]amino]-2-oxoethyl]-5-(trifluoromethyl)benzamide]",,1.0,,
